Measured values taken from ChEMBL document CHEMBL3785051, “Recent progress on third generation covalent EGFR inhibitors” (Bioorg Med Chem Lett, 2016).
Blank lines part the entries; values can stand above or below the compound they belong to.

Assays:
[1] = Oral bioavailability in Nu/Nu mouse at 20 mg/ kg; type: ADME, organism-based; conditions: in vivo
A-431 [2] = assay: Antitumor activity against human A431 cells xenografted in NCR Nu/Nu mouse assessed as tumor growth inhibition at 50 mg/kg, ip administered as bid; type: functional; conditions: A-431, ip, read-out: TGI
NCI-H1975 = assay: Antiproliferative activity against EGFR L858R / T790M double mutant expressing human NCI-H1975 cells assessed as cell viability after 72 hrs by CellTiterGlo analysis; type: functional; conditions: NCI-H1975, 72 h
[3] = Antiproliferative activity against EGFR Del 19 mutant expressing human HCC827 cells assessed as cell viability after 72 hrs by CellTiterGlo analysis; type: functional; conditions: HCC827, 72 h
[4] = Antiproliferative activity against EGFR Del ex19/T790M mutant expressing human HCC827EPR cells assessed as cell viability after 72 hrs by CellTiterGlo analysis; type: functional
[5] = Antiproliferative activity against EGFR Del ex19 mutant expressing human PC9 cells assessed as cell viability after 72 hrs by CellTiterGlo analysis; type: functional; conditions: PC-9, 72 h
A-431 [6] = assay: Antiproliferative activity against wild type EGFR expressing human A431 cells assessed as cell viability after 72 hrs by CellTiterGlo analysis; type: functional; conditions: A-431, 72 h
[7] = Half life in mouse at 25 mg/kg, po; type: ADME, organism-based; conditions: in vivo
[8] = Apparent half life in patient with EGFR TKI-resistant NSCLC at 20 to 240 mg, po qd; type: ADME, organism-based; conditions: human, in vivo, read-out: t1/2(app) (converted)
[9] = Clearance in patient with EGFR TKI-resistant NSCLC at 20 to 240 mg, po qd; type: ADME, organism-based; conditions: human, in vivo
[10] = target: Epidermal growth factor receptor (Homo sapiens, UniProt P00533, EX19DEL); assay: Inhibition of EGFR Del ex19 mutant phosphorylation in human PC9 cells preincubated for 2 hrs by ELISA; type: cell-based, PC-9
Epidermal growth factor receptor (Homo sapiens, UniProt P00533, EX19DEL), sequence (P00533 whole entry, looked up, stated change not applied): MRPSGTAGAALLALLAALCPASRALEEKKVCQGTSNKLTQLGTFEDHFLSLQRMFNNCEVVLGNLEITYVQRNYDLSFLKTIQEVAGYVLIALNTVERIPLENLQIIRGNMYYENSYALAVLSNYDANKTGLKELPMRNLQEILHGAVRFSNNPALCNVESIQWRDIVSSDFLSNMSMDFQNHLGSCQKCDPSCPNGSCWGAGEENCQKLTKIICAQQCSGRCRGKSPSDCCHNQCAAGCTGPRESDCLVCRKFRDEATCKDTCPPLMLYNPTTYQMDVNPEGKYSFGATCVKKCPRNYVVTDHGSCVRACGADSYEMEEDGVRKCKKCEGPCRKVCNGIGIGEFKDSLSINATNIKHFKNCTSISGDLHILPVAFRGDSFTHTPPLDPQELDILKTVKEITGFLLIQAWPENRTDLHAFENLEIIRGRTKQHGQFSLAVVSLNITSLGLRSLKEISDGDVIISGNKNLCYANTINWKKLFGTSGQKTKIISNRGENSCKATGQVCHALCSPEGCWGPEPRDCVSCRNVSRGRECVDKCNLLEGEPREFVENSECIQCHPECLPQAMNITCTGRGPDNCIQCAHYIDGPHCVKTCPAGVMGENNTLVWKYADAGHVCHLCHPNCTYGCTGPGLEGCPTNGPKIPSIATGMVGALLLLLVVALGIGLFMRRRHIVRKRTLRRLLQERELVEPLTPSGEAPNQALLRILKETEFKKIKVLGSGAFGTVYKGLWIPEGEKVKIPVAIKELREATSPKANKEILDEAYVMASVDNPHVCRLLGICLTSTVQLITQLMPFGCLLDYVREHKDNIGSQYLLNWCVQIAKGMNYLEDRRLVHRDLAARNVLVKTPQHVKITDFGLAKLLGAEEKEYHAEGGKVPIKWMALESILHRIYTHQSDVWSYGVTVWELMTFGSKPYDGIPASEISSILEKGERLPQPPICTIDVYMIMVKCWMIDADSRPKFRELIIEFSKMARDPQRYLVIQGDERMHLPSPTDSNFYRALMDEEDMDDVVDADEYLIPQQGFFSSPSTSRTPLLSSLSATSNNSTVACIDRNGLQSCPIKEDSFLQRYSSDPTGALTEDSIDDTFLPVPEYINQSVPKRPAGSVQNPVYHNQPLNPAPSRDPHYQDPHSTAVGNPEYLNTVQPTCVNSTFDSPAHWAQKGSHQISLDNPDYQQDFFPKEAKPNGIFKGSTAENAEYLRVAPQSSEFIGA

[11] = target: Epidermal growth factor receptor (Homo sapiens, UniProt P00533, L858R/T790M); assay: Inhibition of EGFR T790M/L858R double mutant phosphorylation in human H1975 cells preincubated for 2 hrs by ELISA; type: cell-based
Epidermal growth factor receptor (Homo sapiens, UniProt P00533, L858R/T790M), sequence (P00533 25-1210 T790M/L858R limits assumed): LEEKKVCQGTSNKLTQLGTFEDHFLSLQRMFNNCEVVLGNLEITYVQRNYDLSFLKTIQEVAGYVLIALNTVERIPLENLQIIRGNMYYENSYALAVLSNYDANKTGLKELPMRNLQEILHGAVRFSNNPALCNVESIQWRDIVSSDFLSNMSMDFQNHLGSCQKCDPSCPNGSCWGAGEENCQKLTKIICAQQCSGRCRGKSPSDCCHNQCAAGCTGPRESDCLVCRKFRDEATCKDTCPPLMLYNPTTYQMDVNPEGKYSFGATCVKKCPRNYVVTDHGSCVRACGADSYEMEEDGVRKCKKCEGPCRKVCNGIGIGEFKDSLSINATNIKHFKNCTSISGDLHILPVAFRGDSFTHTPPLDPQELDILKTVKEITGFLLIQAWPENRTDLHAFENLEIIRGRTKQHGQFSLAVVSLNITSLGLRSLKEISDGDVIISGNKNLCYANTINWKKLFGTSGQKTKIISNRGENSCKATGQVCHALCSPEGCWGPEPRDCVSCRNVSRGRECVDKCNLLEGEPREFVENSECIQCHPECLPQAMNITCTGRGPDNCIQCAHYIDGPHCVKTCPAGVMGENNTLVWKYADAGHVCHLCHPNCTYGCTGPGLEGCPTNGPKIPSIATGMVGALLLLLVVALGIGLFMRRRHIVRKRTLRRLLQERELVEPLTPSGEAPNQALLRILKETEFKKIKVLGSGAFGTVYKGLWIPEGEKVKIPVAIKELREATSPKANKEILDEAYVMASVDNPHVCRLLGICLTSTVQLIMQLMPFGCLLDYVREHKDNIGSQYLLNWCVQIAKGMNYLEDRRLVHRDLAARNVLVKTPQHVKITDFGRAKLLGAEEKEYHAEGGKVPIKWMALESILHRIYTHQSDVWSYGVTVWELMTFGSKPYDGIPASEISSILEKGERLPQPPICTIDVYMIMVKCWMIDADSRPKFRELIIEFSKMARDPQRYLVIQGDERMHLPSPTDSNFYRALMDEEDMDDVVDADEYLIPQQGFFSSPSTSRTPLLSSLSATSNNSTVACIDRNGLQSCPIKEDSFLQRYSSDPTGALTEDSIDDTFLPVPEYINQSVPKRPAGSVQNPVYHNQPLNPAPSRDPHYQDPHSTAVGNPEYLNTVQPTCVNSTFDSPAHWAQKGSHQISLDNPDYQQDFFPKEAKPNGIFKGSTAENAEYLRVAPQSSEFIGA

[12] = target: Epidermal growth factor receptor (Homo sapiens, UniProt P00533); assay: Inhibition of wild type EGFR phosphorylation in human LoVo cells preincubated for 2 hrs followed by EGF stimulation measured after 30 mins by ELISA; type: cell-based
Epidermal growth factor receptor (Homo sapiens, UniProt P00533), sequence (P00533 whole entry): as the sequence (P00533 whole entry, looked up, stated change not applied) above

bioavailability [1]: 65% | GI50 (NCI-H1975): 7 nM | GI50 (A-431 [6]): 547 nM
Compound: C=CC(=O)Nc1cccc(Nc2nc(Nc3ccc(N4CCN(C(C)=O)CC4)cc3OC)ncc2C(F)(F)F)c1 [ROCILETINIB]
inhibition in vivo at 50 mg/kg (A-431 [2]): 36% | GI50 [3]: 7 nM | GI50 [4]: 7 nM | GI50 [5]: 7 nM

Compound: C=CC(=O)Nc1cc(Nc2nccc(-c3cn(C)c4ccccc34)n2)c(OC)cc1N(C)CCN(C)C [OSIMERTINIB]
half-life [7]: 3 h | half-life [8]: 55 h | CL/F [9]: 237 mL/min

IC50 [10]: 2 nM | IC50 [11]: 2 nM | IC50 [12]: 33 nM
Compound: C=CC(=O)Nc1cc(Nc2nccc(-c3c[nH]c4ccccc34)n2)c(OC)cc1N(C)CCN(C)C

IC50 [10]: 26 nM | IC50 [11]: 45 nM | IC50 [12]: 786 nM
Compound: C=CC(=O)Nc1cc(Nc2nccc(-c3cn(C)c4ccccc34)n2)c(OC)cc1N(C)CCNC
